Measured values reported in US20100286262A1, “PTGS2 HAPLOTYPES” (priority 2007, published 2010).

Assays:
[1] = test system: colorectal cancer patients (stage II/III) after potentially curative therapy; test: VICTOR phase III randomised placebo-controlled trial of rofecoxib: overall survival; format: in vivo, human
Experimental: (§1) This was a phase III randomised, placebo-controlled double-blind trial of R in patients after potentially-curative surgery and completion of adjuvant therapy for stage II/III CRC. 7000 patients were planned to receive 25 mg R daily or an identical placebo (P) for 2 or 5 years, however the trial was terminated early after the worldwide withdrawal of R. A revised protocol and statistical analysis plan permitted detection of a reduction (HR=0.75) in risk of death with 87% power, with one pre-planned event-driven interim analysis.
Patients were randomly assigned to receive R or P at 151 hospitals in the United Kingdom. Inclusion criteria included: histologically proven stage II and III colorectal carcinoma in patients who had undergone complete resection of the primary tumour; WHO Performance Status 0 or 1; haematological, liver and renal function within the normal range. All patients had completed potentially curative therapy (surgery+/−radiotherapy+/−chemotherapy) 12 or fewer weeks previously and had given written informed consent. Patients with active peptic ulceration or gastrointestinal bleeding in the past year, a history of adverse reactions to NSAIDs, or a known sensitivity to R were excluded, as were those receiving long-term NSAID therapy (except for low-dose aspirin, <100 mg per day), those younger than 18 years, and women who were pregnant, lactating, or premenopausal but not using contraception. Patients with a history of cancer (other than adequately treated in situ carcinoma of the cervix, basal or squamous-cell carcinoma), inflammatory bowel disease, or severe congestive heart failure were also excluded.
It was planned to randomly allocate R (one 25-mg tablet daily) or identical P to 7000 patients, with half of each group receiving the study drug for 2 or 5 years. Suitable patients were randomly assigned in a double blind fashion to R or P through the VICTOR Trial Office, which supplied drugs to participating hospitals every 6 months. Minimisation was used to balance allocations by stage (II, III), disease site (colon, rectum, recto-sigmoid), age (<50, 50-59, 60-69, 70+) prior adjuvant chemotherapy and radiotherapy.
(§2) Data-collection forms were amended to solicit baseline data on cardiovascular risk factors, for all patients After worldwide withdrawal of rofecoxib all investigators and patients were informed, study treatment was stopped, and follow-up continued, at 3, 6, 12, 18 and 24 months after randomisation and annually thereafter. Patients received a colonoscopy 1-2 years after primary surgery and 2- to 3-yearly thereafter; a CT scan about 1 year after surgery; clinical examination and routine blood tests at outpatient visits. All recurrences were confirmed by CT or MRI scan and patients were flagged for survival with the UK's Office of National Statistics. Adverse event data were recorded systematically throughout the study and were reviewed by the trials team (RM, DJK and MJL) to clarify diagnoses.
The original study was powered to detect a reduction in risk of death between treatments for stage II and stage III separately, (hazard ratio 0.80), with type I error 0.05. The modified statistical plan, after premature closure with 2434 patients, permitted detection of a reduction in risk of death of HR 0.75, 87% power, with type I error 0.05, and one interim analysis specified according to an O'Brien-Fleming alpha-spending rule when there were 350 events. The threshold for statistical significance for OS at this analysis is p<0.01325. OS, the primary endpoint, was measured from randomisation to death from any cause. Secondary endpoints include DFS, measured from randomisation to recurrence or death from any cause and recurrence-free survival, measured from randomisation to recurrence and/or colorectal cancer death. This is the report of the interim analysis, with 368 deaths. Kaplan-Meier curves and log-rank analysis were used for comparisons of OS and DFS. Subgroups were examined using HR plots. […]

[2] = test system: colorectal cancer patients (stage II/III) after potentially curative therapy; test: VICTOR trial: safety (serious adverse events, early discontinuations), treated population; format: in vivo
Experimental: as §1, §2
The original study was powered to detect a reduction in risk of death between treatments for stage II and stage III separately, (hazard ratio 0.80), with type I error 0.05. The modified statistical plan, after premature closure with 2434 patients, permitted detection of a reduction in risk of death of HR 0.75, 87% power, with type I error 0.05, and one interim analysis specified according to an O'Brien-Fleming alpha-spending rule when there were 350 events. The threshold for statistical significance for OS at this analysis is p<0.01325. OS, the primary endpoint, was measured from randomisation to death from any cause. Secondary endpoints include DFS, measured from randomisation to recurrence or death from any cause and recurrence-free survival, measured from randomisation to recurrence and/or colorectal cancer death. This is the report of the interim analysis, with 368 deaths. Kaplan-Meier curves and log-rank analysis were used for comparisons of OS and DFS. Subgroups were examined using HR plots. Hazard ratios and their confidence intervals were calculated from log-rank statistics and variances. Cox's proportional hazards models were used to estimate the treatment effect adjusted by prognostic factors. All reported p-values are two-sided. For analysis of OS, patients not reported as dead were censored at their last known date alive. For analysis of DFS, patients who were alive and recurrence-free were censored at their last known recurrence-free date. For analysis of DFS in first year after randomisation, patients who were alive and recurrence-free at one year were censored at that time. Numbers of SAEs were compared using a normal approximation to the Poisson distribution.
Serious Adverse Events (SAEs) were collected for each patient from enrolment until the data lock of November 2007. Cardiovascular thrombotic events have previously been reported in detail. In summary, of 23 confirmed cardiovascular thrombotic events that occurred within the treatment period or within 14 days after cessation, 16 occurred in the R arm and 7 in the P arm with an estimated relative risk of 2.66 (95% confidence intervals (CI) 1.03-6.86; p=0.04). These included fatal and nonfatal myocardial infarction, unstable angina, sudden death from cardiac causes, fatal and nonfatal ischemic stroke, transient ischemic attack, peripheral arterial thrombosis, peripheral venous thrombosis, and pulmonary embolism. Fourteen more cardiovascular thrombotic events, six in the R arm and eight in the P arm, were reported within the two years after the trial closure, with an overall total period unadjusted relative risk of 1.50 (95% CI 0.76-2.94; p=0.24). […]

CS(=O)(=O)c1ccc(C2=C(c3ccccc3)C(=O)OC2)cc1 [rofecoxib, 3-phenyl-4-(4(methylsulfonyl)phenyl)-2-(5H)-furanone]
Number of patients still at risk (overall survival, FIG. 5) ([1]; 0 years from randomisation): 1217
Hazard ratio (HR) for dying from any cause (overall survival), R compared with P ([1]; 25 mg daily, intention-to-treat, 1217 vs 1217, 95% CI 0.77 to 1.16, P=0.57): 0.94
Number of patients still at risk (overall survival, FIG. 5) ([1]; 1 year from randomisation): 1152
Number of patients still at risk (overall survival, FIG. 5) ([1]; 2 years from randomisation): 1012
Number of patients still at risk (overall survival, FIG. 5) ([1]; 3 years from randomisation): 663
Number of patients still at risk (overall survival, FIG. 5) ([1]; 4 years from randomisation): 219
Number of patients still at risk (overall survival, FIG. 5) ([1]; 5 years from randomisation): 21
Number of deaths without recurrent disease ([1]; 14 in P group): 15
3-year Kaplan-Meier OS rate ([1]; 95% CI 85.7 to 89.6, P group 86.6): 87.6%
HR for colorectal cancer-specific mortality ([1]; R vs P, 95% CI 0.75-1.15, p=0.50): 0.93
Patient deaths with no reported cause ([1]; each group): Five
Number of deaths ([1]; over the study period, 191 in placebo group): 177
HR for dying adjusted for stage, age, radiotherapy group and aspirin use at baseline ([1]; proportional hazards analysis, 95% CI 0.78-1.17, p=0.64): 0.95
Early discontinuation of study drug for hypertension (patients) ([2]; 1 in P): 7
Early discontinuation of study drug for renal impairment (patients) ([2]; 1 in P): 7
SAE: cardiac failure of unknown aetiology (patients) ([2]; 1 in P): 4
SAE: stable angina (patients) ([2]; 2 in P): 5
SAE: various infections (patients) ([2]; 3 in P, p=0.05): 10
Early discontinuation of study drug for diarrhea (patients) ([2]; 4 in P): 4
SAE: cardiac arrhythmias (patients) ([2]; 4 in P): 3
Early discontinuation of study drug for gastrointestinal pain or heartburn (patients) ([2]; 5 in P): 15
Early discontinuation of study drug for analgesia required for arthritis (patients) ([2]; 15 in P): 4
Overall total period unadjusted relative risk of cardiovascular thrombotic events ([2]; 95% CI 0.76-2.94, p=0.24): 1.50
Early discontinuation of study drug for heart failure (patients) ([2]; in vivo): 2
Enhanced cardiovascular adverse event profile ([2]; in vivo): 1-2%
Other SAEs (depression, neuralgia, polymyositis, epilepsy), frequency ([2]; in vivo): less than 0.2%
SAE: hypertension (patients) ([2]; in vivo): 2
Gastro-intestinal SAEs (indigestion/gastroduodenal ulceration, diarrhoea, constipation, obstruction), frequency in patients ([2]; no significant difference comparing R and P): less than 1%
All-cause SAEs (in words) ([2]; p=0.05): there was an association with R administration
Estimated relative risk of cardiovascular thrombotic events ([2]; treatment period or within 14 days after cessation, 95% CI 1.03-6.86, p=0.04): 2.66
Confirmed cardiovascular thrombotic events ([2]; within the treatment period or within 14 days after cessation, 7 in P arm): 16
Further cardiovascular thrombotic events ([2]; within the two years after the trial closure, eight in P arm): six
